From ChEMBL document CHEMBL2303647, “Data associated with the publication PLoS ONE, 8(3), e57888, (2013) PMID: 23505445. Compounds: GSK PKIS; Assays: NIH NCATS” come the findings set out here.

Assay [1] concerns the target T1, Coelenterazine h 2-monooxygenase (Renilla reniformis, UniProt P27652).
T1 sequence (P27652 whole entry): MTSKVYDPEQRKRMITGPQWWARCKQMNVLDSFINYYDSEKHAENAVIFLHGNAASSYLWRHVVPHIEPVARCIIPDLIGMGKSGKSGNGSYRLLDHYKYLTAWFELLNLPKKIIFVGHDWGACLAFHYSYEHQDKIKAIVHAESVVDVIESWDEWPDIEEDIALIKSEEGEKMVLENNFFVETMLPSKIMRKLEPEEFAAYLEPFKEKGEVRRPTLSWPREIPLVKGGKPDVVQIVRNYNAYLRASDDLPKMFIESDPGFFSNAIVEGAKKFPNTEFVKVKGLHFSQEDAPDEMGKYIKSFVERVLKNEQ
Description: GSK_PKIS: Inhibition of Sea Pansy Luciferase (Data from PubChem: AID 652015) [NIH NCATS]

Assay [2] has as its target Luciferin 4-monooxygenase (Photinus pyralis, UniProt P08659).
Description: GSK_PKIS: Inhibition of Firefly Luciferase (Data from PubChem: AID 652016) [NIH NCATS]

The AC50 is the midpoint of the concentration-response curve, whichever way the signal moves.

Sequence of Luciferin 4-monooxygenase (P08659 whole entry): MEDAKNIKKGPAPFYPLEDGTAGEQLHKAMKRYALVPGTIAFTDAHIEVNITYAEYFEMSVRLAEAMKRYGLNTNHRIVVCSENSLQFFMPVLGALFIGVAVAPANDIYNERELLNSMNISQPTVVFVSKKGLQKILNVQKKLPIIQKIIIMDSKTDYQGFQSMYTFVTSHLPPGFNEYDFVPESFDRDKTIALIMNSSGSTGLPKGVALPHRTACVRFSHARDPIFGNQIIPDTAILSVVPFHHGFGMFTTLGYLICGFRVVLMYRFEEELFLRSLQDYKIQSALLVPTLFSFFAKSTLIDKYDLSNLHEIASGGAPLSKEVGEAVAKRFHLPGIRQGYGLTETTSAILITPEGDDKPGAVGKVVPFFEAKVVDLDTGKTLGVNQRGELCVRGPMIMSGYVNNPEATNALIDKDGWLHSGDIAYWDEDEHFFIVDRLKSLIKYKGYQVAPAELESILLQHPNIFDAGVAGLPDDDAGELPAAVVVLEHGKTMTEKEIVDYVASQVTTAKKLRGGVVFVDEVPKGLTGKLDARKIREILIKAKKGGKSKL

With `CC1=C(C(=O)Nc2ccc3[nH]ncc3c2)C(c2ccc3ccccc3c2)CC(=O)N1` (stereo not drawn) [GSK-270822A], the AC50 entry in assay [1] is “Phenotype: Inactive; Curve_Description: None”; in assay [2] (read-out: AC50), 41.1 µM.
The matching figures for `Cc1cc(O)cc(C)c1/C=C/c1cncc(-c2nn[nH]n2)c1.Cl` [GW441806A]: “Phenotype: Inactive; Curve_Description: None” and 29.1 µM.
Consider `COC(=O)Nc1nc2cc(Oc3ccc(NC(=O)Nc4ccccc4)cc3)ccc2[nH]1.Cl` [GW694590A], for which the figures for the AC50 result in assay [1] and in assay [2] (read-out: AC50) were “Phenotype: Inactive; Curve_Description: None” and 14.6 µM, respectively.
As for `Cc1nnc(-c2cccc(-c3ccc(C(=O)NCC4CC4)cc3)c2)o1` [GW734508X], the AC50 in assay [1] (read-out: AC50) was 36.6 µM; in assay [2], “Phenotype: Inactive; Curve_Description: None”.
With `O=C(Nc1n[nH]c2cc(-c3ccc(F)cc3)ccc12)C1CC1`, the results for the AC50 entry in assay [1] and in assay [2] (read-out: AC50) were “Phenotype: Inactive; Curve_Description: None” and 16.3 µM, respectively.
As to `COc1ccc2cc(-c3c(-c4ccncc4)nc(-c4ccc(S(C)(=O)=O)cc4C)n3C)ccc2c1`, the AC50 entry in assay [1] and in assay [2] was “Phenotype: Inactive; Curve_Description: None” in each case.
Take `NC(=O)c1cc(-c2ccc(F)cc2)cc(-c2ccncc2)c1N` [GSK-620503A]: the AC50 entry in assay [1] and in assay [2] was “Phenotype: Inactive; Curve_Description: None” each time.
Turning to `CCc1ccc(Oc2nccc(-c3c(-c4ccc(F)cc4)ncn3C3CCNCC3)n2)cc1`, the AC50 entry in assay [1] and in assay [2] was “Phenotype: Inactive; Curve_Description: None” each time.
For the molecule `FC(F)(F)c1cccc(-c2nn3ncccc3c2-c2ccnc(Nc3ccc4c(c3)OCCO4)n2)c1` [GW827102X], the AC50 result was “Phenotype: Inactive; Curve_Description: None” in assay [1] and 32.6 µM in assay [2] (read-out: AC50).
For the molecule `N#Cc1c(NC(=O)CN2CCOCC2)sc2c1CCCC2.O=C(O)C(=O)O`, the AC50 entry in assay [1] and in assay [2] was “Phenotype: Inactive; Curve_Description: None” in each case.
As for `CCn1c(-c2nonc2N)nc2c(N3CCCC3)nccc21`, the AC50 entry in assay [1] and in assay [2] was “Phenotype: Inactive; Curve_Description: None” each time.
`CCOc1ccc2c(-c3ccnc(Nc4cc(OC)cc(C(F)(F)F)c4)n3)cnn2n1` [GW807982X]: the results for the AC50 entry in assay [1] and in assay [2] (read-out: AC50) were “Phenotype: Activator; Curve_Description: None” and 14.6 µM, respectively.
Consider `FC(F)(F)CNc1nccc(-c2cnn3ncccc23)n1` [GW683003X], for which the AC50 result was “Phenotype: Inactive; Curve_Description: None” in assay [1] and “Phenotype: Activator; Curve_Description: None” in assay [2].
On to `O=C(Nc1n[nH]c2nc(-c3ccc(O)cc3)c(Br)cc12)C1CC1`, for which the AC50 entry in assay [1] is “Phenotype: Inactive; Curve_Description: None”; in assay [2] (read-out: AC50), 20.6 µM.
The matching figures for `Cc1ccc(Nc2ccnc(Nc3cccc(C(N)=O)c3)n2)cc1O.Cl` [GW575808A]: “Phenotype: Inactive; Curve_Description: None” and 1.46 µM.
With `c1ccc(Cc2nc3ccc(Nc4ncnc5ccccc45)cc3[nH]2)cc1`, the figures for the AC50 in assay [1] (read-out: AC50) and in assay [2] (read-out: AC50) were 18.3 µM and 16.3 µM, respectively.
Turning to `O=C(O)C(F)(F)F.O=C(O[C@H]1CN[C@H](C#Cc2cc3ncnc(Nc4ccc5c(ccn5Cc5cc(F)ccc5F)c4)c3s2)C1)N1CCOCC1` [GSK-259178A], the AC50 entry in assay [1] and in assay [2] was “Phenotype: Inactive; Curve_Description: None” throughout.
As for `c1cnn2ncc(-c3ccnc(Nc4ccc5c(c4)OCCO5)n3)c2c1` [GW806290X], the AC50 result was “Phenotype: Inactive; Curve_Description: None” in assay [1] and 2.91 µM in assay [2] (read-out: AC50).
As for `Nc1nc(-c2cccc(Cl)c2)c(-c2ccc3ncccc3n2)s1` [GW780159X], the AC50 entry in assay [1] and in assay [2] was “Phenotype: Inactive; Curve_Description: None” in each case.
`Cc1cc(Cl)cc2c1NC(=O)C2=NNc1ccc(S(N)(=O)=O)cc1` [GW279320X]: the AC50 in assay [1] (read-out: AC50) was 29.1 µM; in assay [2], “Phenotype: Inactive; Curve_Description: None”.
`Nc1nc(-c2ccccn2)c(-c2ccc3ncccc3n2)s1` [GW693481X]: the results for the AC50 result in assay [1] and in assay [2] (read-out: AC50) were “Phenotype: Inactive; Curve_Description: None” and 32.6 µM, respectively.
As to `Cc1ccc(C(=O)NC2CCCCC2)cc1-c1ccc(C(=O)NCC2CC2)cc1` [GW782907X], the AC50 entry in assay [1] and in assay [2] was “Phenotype: Inactive; Curve_Description: None” throughout.
Consider `COc1cc2ncn(-c3cc(OCc4ccccc4S(C)(=O)=O)c(C#N)s3)c2cc1OC` [GSK-319347A], for which the AC50 result in assay [1] and in assay [2] was “Phenotype: Inactive; Curve_Description: None” in each case.
As for `Cc1ccc2c(c1)/C(=N/Nc1ccc(S(N)(=O)=O)cc1)C(=O)N2` [GW275944X], the AC50 entry in assay [1] and in assay [2] was “Phenotype: Inactive; Curve_Description: None” throughout.
Take `CC(C)(CO)CNC(=O)c1ccc2c(c1)/C(=N/Nc1ccc(S(N)(=O)=O)cc1)C(=O)N2` [GW301784X]: the AC50 entry was “Phenotype: Inactive; Curve_Description: None” in assay [1] and 41.1 µM in assay [2] (read-out: AC50).
In the same order, the values of `CN(c1ccc(NC(=O)Nc2ccc(OC(F)(F)F)cc2)cc1)c1ccnc(Nc2cccc(S(N)(=O)=O)c2)n1` [GW806742X] are “Phenotype: Inactive; Curve_Description: None” and 18.3 µM.
As to `CCn1c(-c2nonc2N)nc2c(C#CC(C)(C)O)nc(OC[C@H](N)c3ccccc3)cc21` [GSK-943949A], the AC50 in assay [1] (read-out: AC50) was 29.1 µM; in assay [2], “Phenotype: Inactive; Curve_Description: None”.
On to `Nc1nccc(-c2c(-c3ccc(F)cc3)ncn2C2CCC(O)CC2)n1` (stereo not drawn), for which the AC50 result in assay [1] and in assay [2] was “Phenotype: Inactive; Curve_Description: None” each time.
Turning to `Cc1ccc2c(-c3ccnc(Nc4ccc5c(c4)OCCO5)n3)c(-c3ccc(C(F)(F)F)cc3)nn2n1` [GW832467X], the AC50 entry in assay [1] and in assay [2] was “Phenotype: Inactive; Curve_Description: None” throughout.
Consider `C/C(Nc1ccc(S(N)(=O)=O)cc1)=C1/C(=O)Nc2ccccc21` [GW335962X], for which the AC50 entry was “Phenotype: Inactive; Curve_Description: None” in assay [1] and 3.66 µM in assay [2] (read-out: AC50).
Consider `CS(=O)(=O)CCN(CC#N)Cc1ccc(-c2ccc3ncnc(Nc4ccc(OCc5cccc(F)c5)c(Cl)c4)c3c2)o1` [GW616030X], for which the AC50 result in assay [1] and in assay [2] was “Phenotype: Inactive; Curve_Description: None” each time.
With `COC(=O)Nc1nc2ccc(Oc3ccc(NC(=O)Nc4cccc(Cl)c4)cc3)cc2[nH]1.Cl` [GW589961A], the figures for the AC50 result in assay [1] and in assay [2] (read-out: AC50) were “Phenotype: Inactive; Curve_Description: None” and 20.6 µM, respectively.
On to `CC1=C(C(=O)Nc2cc(Cl)c3[nH]ncc3c2)C(c2ccc(C(F)(F)F)cc2)CC(=O)N1` (stereo not drawn) [GSK-466317A], for which the AC50 entry in assay [1] and in assay [2] was “Phenotype: Inactive; Curve_Description: None” throughout.
Take `COc1cccc(-n2ncc3c(N/N=C/c4ccc(C(=O)NCCN(C)C)cc4)ncnc32)c1.Cl` [GW784307A]: the AC50 result in assay [1] is “Phenotype: Inactive; Curve_Description: None”; in assay [2] (read-out: AC50) it was 16.3 µM.
As to `CCS(=O)(=O)c1ccc(OC)c(Nc2ncc(-c3cccc(F)c3)o2)c1` [GW621970X], the AC50 result in assay [1] and in assay [2] was “Phenotype: Inactive; Curve_Description: None” each time.
Consider `COc1ccc2cc(-c3c(-c4ccncc4)nc(-c4ccc([S+](C)[O-])cc4)n3C)ccc2c1` (stereo not drawn), for which the figures for the AC50 entry in assay [1] and in assay [2] (read-out: AC50) were “Phenotype: Inactive; Curve_Description: None” and 36.6 µM, respectively.
With `COc1ccc2ncn(-c3cc(O[C@H](C)c4ccccc4C(F)(F)F)c(C(N)=O)s3)c2c1` [GSK-317315A], the figures for the AC50 in assay [1] (read-out: AC50) and in assay [2] were 20.6 µM and “Phenotype: Inactive; Curve_Description: None”, respectively.
The matching figures for `CCS(=O)(=O)c1ccc(OC)c(Nc2nccc(N(C)c3ccc4c(C)n[nH]c4c3)n2)c1.Cl` [GW654652C]: 32.6 µM and “Phenotype: Inactive; Curve_Description: None”.
In the case of `COc1cc(Nc2nccc(Nc3ccc4c(C)n[nH]c4c3)n2)cc(OC)c1OC` [GW612286X], the AC50 was 36.6 µM in assay [1] (read-out: AC50) and 18.3 µM in assay [2] (read-out: AC50).
For `COc1cc(Nc2nccc(-c3cnn4ncccc34)n2)cc(OC)c1` [GW801372X], the AC50 result in assay [1] and in assay [2] was “Phenotype: Inactive; Curve_Description: None” throughout.
With `NS(=O)(=O)c1cccc(-c2cc3ccncc3cc2OCc2ccccc2)c1` [GSK-980961A], the half-maximal activity concentration (AC50) in assay [1] (read-out: AC50) was 25.9 µM; in assay [2], “Phenotype: Inactive; Curve_Description: None”.
For the molecule `CCCNc1cccc(-n2ncc3c(N/N=C/c4ccncc4)ncnc32)c1` [GW794607X], the AC50 result in assay [1] and in assay [2] was “Phenotype: Inactive; Curve_Description: None” each time.
As to `CCn1c(-c2nonc2N)nc2c(C#CC(C)(C)O)nc(OC[C@@H](N)c3ccccc3)cc21` [GSK-938890A], the AC50 in assay [1] (read-out: AC50) is 29.1 µM; in assay [2], “Phenotype: Inactive; Curve_Description: None”.
For `COc1cccc(-n2ncc3c(N/N=C/c4cccc(F)c4)ncnc32)c1` [GW817394X], the AC50 result in assay [1] is “Phenotype: Inactive; Curve_Description: None”; in assay [2] (read-out: AC50), 18.3 µM.
